Experimental data from publication PMC5218480 (PLoS ONE, 2017).

System: MV-4-11 cells
Assay: Gene expression microarray analysis (Affymetrix PrimeView) and GSEA
Type: cell-based, human
Design: RFU PODN (11730768_x_at) / Fold change /veh PODN (11730768_x_at) / RFU LINC00158 (11744669_a_at) / Fold change /veh LINC00158 (11744669_a_at) / RFU DUSP10 (11751237_a_at) / Fold change /veh DUSP10 (11751237_a_at) / RFU ID3 (11757404_x_at) / Fold change /veh ID3 (11757404_x_at) / RFU PLEKHG5 (11737974_s_at) / Fold change /veh PLEKHG5 (11737974_s_at) / RFU LRRC4B (11730491_at) / Fold change /veh LRRC4B (11730491_at) / RFU GIMAP4 (11747438_a_at) / Fold change /veh GIMAP4 (11747438_a_at) / RFU KRT8 (11758183_x_at) / Fold change /veh KRT8 (11758183_x_at) / RFU CNN1 (11734310_a_at) / Fold change /veh CNN1 (11734310_a_at) / RFU VPS37D (11726825_at) / Fold change /veh VPS37D (11726825_at) / RFU C10orf10 (11716522_x_at) / Fold change /veh C10orf10 (11716522_x_at) / RFU KIR2DL2 /// KIR2DL4 /// KIR2DL5A /// KIR2DL5B /// KIR2DS1 /// KIR2DS2 /// KIR2DS3 /// KIR2DS4 /// KIR3DL3 /// KIR3DL3 /// KIR3DS1 (11738374_at) / Fold change /veh KIR2DL2 /// KIR2DL4 /// KIR2DL5A /// KIR2DL5B /// KIR2DS1 /// KIR2DS2 /// KIR2DS3 /// KIR2DS4 /// KIR3DL3 /// KIR3DL3 /// KIR3DS1 (11738374_at) / RFU C1QL1 (11718748_at) / Fold change /veh C1QL1 (11718748_at) / RFU TMPRSS4 (11747572_a_at) / Fold change /veh TMPRSS4 (11747572_a_at) / RFU HAMP (11756126_x_at) / Fold change /veh HAMP (11756126_x_at) / RFU RNFT2 (11725882_a_at) / Fold change /veh RNFT2 (11725882_a_at) / RFU NR4A2 (11747474_a_at) / Fold change /veh NR4A2 (11747474_a_at) / RFU ABCC12 (11746883_a_at) / Fold change /veh ABCC12 (11746883_a_at) / RFU TMEM136 (11760407_x_at) / Fold change /veh TMEM136 (11760407_x_at) / RFU CLDN22 /// WWC2 (11732394_at) / Fold change /veh CLDN22 /// WWC2 (11732394_at) / RFU HLA-DPB1 (11760878_x_at) / Fold change /veh HLA-DPB1 (11760878_x_at) / RFU SPINT1 (11716480_a_at) / Fold change /veh SPINT1 (11716480_a_at) / RFU GAP43 (11754022_s_at) / Fold change /veh GAP43 (11754022_s_at) / RFU A4GNT (11735810_at) / Fold change /veh A4GNT (11735810_at) / RFU PRB3 (11715151_x_at) / Fold change /veh PRB3 (11715151_x_at) / RFU TUBB4B (11761932_at) / Fold change /veh TUBB4B (11761932_at) / RFU CAPN14 (11732068_a_at) / Fold change /veh CAPN14 (11732068_a_at) / RFU TMCC2 (11721928_a_at) / Fold change /veh TMCC2 (11721928_a_at) / RFU IRGQ (11745062_a_at) / Fold change /veh IRGQ (11745062_a_at) / RFU FAM174B (11720279_a_at) / Fold change /veh FAM174B (11720279_a_at) / RFU TMPRSS4 (11748680_a_at) / Fold change /veh TMPRSS4 (11748680_a_at) / RFU FAM212B (11763350_a_at) / Fold change /veh FAM212B (11763350_a_at) / RFU PLEKHG5 (11743358_a_at) / Fold change /veh PLEKHG5 (11743358_a_at) / RFU ZSCAN30 (11745921_a_at) / Fold change /veh ZSCAN30 (11745921_a_at) / RFU CMKLR1 (11741424_a_at) / Fold change /veh CMKLR1 (11741424_a_at) / RFU LOC101060620 /// MAPK8IP1 (11723275_at) / Fold change /veh LOC101060620 /// MAPK8IP1 (11723275_at) / RFU SPTSSB (11747773_x_at) / Fold change /veh SPTSSB (11747773_x_at) / RFU PRSS12 (11739890_at) / Fold change /veh PRSS12 (11739890_at) / RFU BIN1 (11741810_x_at) / Fold change /veh BIN1 (11741810_x_at) / RFU WNT11 (11732464_a_at) / Fold change /veh WNT11 (11732464_a_at) / RFU C10orf10 (11716521_a_at) / Fold change /veh C10orf10 (11716521_a_at) / RFU C5orf56 (11738089_at) / Fold change /veh C5orf56 (11738089_at) / RFU CYB561 (11721691_x_at) / Fold change /veh CYB561 (11721691_x_at) / RFU ANKRD19P (11752326_a_at) / Fold change /veh ANKRD19P (11752326_a_at) / RFU OR2T12 /// OR2T33 /// OR2T8 (11738714_s_at) / Fold change /veh OR2T12 /// OR2T33 /// OR2T8 (11738714_s_at) / RFU VCAN (11748164_a_at) / Fold change /veh VCAN (11748164_a_at) / RFU JSRP1 (11732532_at) / Fold change /veh JSRP1 (11732532_at) / RFU KRTAP10-11 (11738290_x_at) / Fold change /veh KRTAP10-11 (11738290_x_at) / RFU MYO3A (11730013_a_at) / Fold change /veh MYO3A (11730013_a_at) / RFU EBF3 (11725865_a_at) / Fold change /veh EBF3 (11725865_a_at) / RFU CAMK2N1 (11719241_x_at) / Fold change /veh CAMK2N1 (11719241_x_at) / RFU C5orf56 (11738088_a_at) / Fold change /veh C5orf56 (11738088_a_at) / RFU OLFML3 (11715873_a_at) / Fold change /veh OLFML3 (11715873_a_at) / RFU LOC100653217 /// NTM (11731650_a_at) / Fold change /veh LOC100653217 /// NTM (11731650_a_at) / RFU MAPK11 (11762145_a_at) / Fold change /veh MAPK11 (11762145_a_at) / RFU FIZ1 (11724087_x_at) / Fold change /veh FIZ1 (11724087_x_at) / RFU OASL (11726364_x_at) / Fold change /veh OASL (11726364_x_at) / RFU SOX15 (11748057_x_at) / Fold change /veh SOX15 (11748057_x_at) / RFU CD79A (11719716_a_at) / Fold change /veh CD79A (11719716_a_at) / RFU HIST1H1D (11736915_at) / Fold change /veh HIST1H1D (11736915_at) / RFU CASKIN2 (11723855_a_at) / Fold change /veh CASKIN2 (11723855_a_at) / RFU LOC730098 (11760151_x_at) / Fold change /veh LOC730098 (11760151_x_at) / RFU OR4N2 (11742367_at) / Fold change /veh OR4N2 (11742367_at) / RFU PRRT2 (11749266_a_at) / Fold change /veh PRRT2 (11749266_a_at) / RFU SNX32 (11753110_a_at) / Fold change /veh SNX32 (11753110_a_at) / RFU CDHR5 (11726645_a_at) / Fold change /veh CDHR5 (11726645_a_at) / RFU RCAN1 (11760418_a_at) / Fold change /veh RCAN1 (11760418_a_at) / RFU FAM167A (11723789_a_at) / Fold change /veh FAM167A (11723789_a_at) / RFU FAM26E (11764081_at) / Fold change /veh FAM26E (11764081_at) / RFU ISYNA1 (11749810_s_at) / Fold change /veh ISYNA1 (11749810_s_at) / RFU ACY1 (11761880_at) / Fold change /veh ACY1 (11761880_at) / RFU 11764098_at / Fold change /veh 11764098_at / RFU SAMD14 (11745864_x_at) / Fold change /veh SAMD14 (11745864_x_at) / RFU NPB (11741838_a_at) / Fold change /veh NPB (11741838_a_at) / RFU TMPRSS6 (11731388_a_at) / Fold change /veh TMPRSS6 (11731388_a_at) / RFU KRTAP10-2 (11738614_at) / Fold change /veh KRTAP10-2 (11738614_at) / RFU ARHGAP8 /// PRR5-ARHGAP8 (11727945_x_at) / Fold change /veh ARHGAP8 /// PRR5-ARHGAP8 (11727945_x_at) / RFU KRTAP5-7 /// NADSYN1 (11734609_at) / Fold change /veh KRTAP5-7 /// NADSYN1 (11734609_at) / RFU RASL12 (11751679_a_at) / Fold change /veh RASL12 (11751679_a_at) / RFU CDKN2B (11736163_a_at) / Fold change /veh CDKN2B (11736163_a_at) / RFU PRF1 (11729649_at) / Fold change /veh PRF1 (11729649_at) / RFU, ZNF638 /// ZNF638-IT1 / Fold change vs veh, ZNF638 /// ZNF638-IT1 / RFU, PANK3 / Fold change vs veh, PANK3 / RFU, SH3YL1 / Fold change vs veh, SH3YL1 / RFU, ZEB2 / Fold change vs veh, ZEB2 / RFU, NRIP1 / Fold change vs veh, NRIP1 / RFU, PTTG1IP / Fold change vs veh, PTTG1IP / RFU, CAPN2 / Fold change vs veh, CAPN2 / RFU, MED14 / Fold change vs veh, MED14 / RFU, SNORA58 / Fold change vs veh, SNORA58 / RFU, C1orf63 / Fold change vs veh, C1orf63 / RFU, LRRFIP1 / Fold change vs veh, LRRFIP1 / RFU, NDUFAF7 / Fold change vs veh, NDUFAF7 / RFU, SLC12A2 / Fold change vs veh, SLC12A2 / RFU, IBTK / Fold change vs veh, IBTK / RFU, ESF1 / Fold change vs veh, ESF1 / Fold change vs veh, TMEM50B / RFU, TAOK1 / Fold change vs veh, TAOK1 / RFU, ACBD3 / Fold change vs veh, ACBD3 / RFU, TMA16 / Fold change vs veh, TMA16 / RFU, RWDD3 / Fold change vs veh, RWDD3 / RFU, BCAT1 / Fold change vs veh, BCAT1 / RFU, EDEM3 / Fold change vs veh, EDEM3 / RFU, TMEM33 / Fold change vs veh, TMEM33 / RFU, WDR75 / Fold change vs veh, WDR75 / RFU, AHCTF1 / Fold change vs veh, AHCTF1 / RFU, TFRC / Fold change vs veh, TFRC / RFU, ZDHHC17 / Fold change vs veh, ZDHHC17 / RFU, NOM1 / Fold change vs veh, NOM1 / RFU, ARL8B / Fold change vs veh, ARL8B / RFU, ZBTB11 / Fold change vs veh, ZBTB11 / RFU, TAMM41 / Fold change vs veh, TAMM41 / RFU, KIAA1704 /// LOC100996395 / Fold change vs veh, KIAA1704 /// LOC100996395 / RFU, ING1 / Fold change vs veh, ING1 / RFU, TRMT61B / Fold change vs veh, TRMT61B / RFU, FUBP3 / Fold change vs veh, FUBP3 / RFU, TP53 / Fold change vs veh, TP53 / RFU, TNKS2 / Fold change vs veh, TNKS2 / RFU, ZFP14 / Fold change vs veh, ZFP14 / RFU, ACTR2 / Fold change vs veh, ACTR2 / RFU, PPP3R1 / Fold change vs veh, PPP3R1 / RFU, PIK3R1 / Fold change vs veh, PIK3R1 / RFU, HNRNPA1 / Fold change vs veh, HNRNPA1 / RFU, RNF170 / Fold change vs veh, RNF170 / RFU, ZNF28 / Fold change vs veh, ZNF28 / RFU, RNGTT / Fold change vs veh, RNGTT / RFU, OGT / Fold change vs veh, OGT / RFU, BRD1 / Fold change vs veh, BRD1 / RFU, MARS / Fold change vs veh, MARS / RFU, ZNF655 / Fold change vs veh, ZNF655 / RFU, FAHD1 / Fold change vs veh, FAHD1 / RFU, BDP1 / Fold change vs veh, BDP1 / RFU, LRRCC1 / Fold change vs veh, LRRCC1 / RFU, ARID1A / Fold change vs veh, ARID1A / RFU, ZNF146 / Fold change vs veh, ZNF146 / RFU, ZNF330 / Fold change vs veh, ZNF330 / RFU, GPN3 / Fold change vs veh, GPN3 / RFU, C9orf123 / Fold change vs veh, C9orf123 / RFU, N4BP2L2 / Fold change vs veh, N4BP2L2 / RFU, ARFIP1 / Fold change vs veh, ARFIP1 / RFU, FAM179B / Fold change vs veh, FAM179B / RFU, BCL10 / Fold change vs veh, BCL10 / RFU, UHRF1BP1L / Fold change vs veh, UHRF1BP1L / RFU, BET1 / Fold change vs veh, BET1 / RFU, CNOT2 / Fold change vs veh, CNOT2 / RFU, ZNF268 / Fold change vs veh, ZNF268 / Fold change vs veh, ZNF507 / RFU, DGCR2 / Fold change vs veh, DGCR2 / RFU, WDSUB1 / Fold change vs veh, WDSUB1 / Fold change vs veh, HSP90B1 /// MIR3652 / RFU, ADSS / Fold change vs veh, ADSS / RFU, GK / Fold change vs veh, GK / RFU, ZNF148 / Fold change vs veh, ZNF148 / RFU, TAF9 / Fold change vs veh, TAF9 / RFU, SLC1A5 / Fold change vs veh, SLC1A5 / RFU, SLMO2 / Fold change vs veh, SLMO2 / RFU, ABCC4 / Fold change vs veh, ABCC4 / RFU, LOC101060439 /// RAP1B / Fold change vs veh, LOC101060439 /// RAP1B / RFU, RFX7 / Fold change vs veh, RFX7 / RFU, GTPBP10 / Fold change vs veh, GTPBP10 / RFU, CNEP1R1 / Fold change vs veh, CNEP1R1 / RFU, BIVM-ERCC5 /// ERCC5 / Fold change vs veh, BIVM-ERCC5 /// ERCC5 / RFU, ILF3 / Fold change vs veh, ILF3 / RFU 11762660_at / Fold change /veh 11762660_at / RFU VCAN (11757783_s_at) / Fold change /veh VCAN (11757783_s_at) / RFU DDX43 (11728927_at) / Fold change /veh DDX43 (11728927_at) / RFU KRT8 (11758188_x_at) / Fold change /veh KRT8 (11758188_x_at) / RFU NKD1 (11759106_at) / Fold change /veh NKD1 (11759106_at) / RFU SRD5A1 (11742802_a_at) / Fold change /veh SRD5A1 (11742802_a_at) / RFU TPSAB1 /// TPSB2 (11721975_s_at) / Fold change /veh TPSAB1 /// TPSB2 (11721975_s_at) / RFU GSTM3 (11746129_a_at) / Fold change /veh GSTM3 (11746129_a_at) / RFU IL23R (11737362_x_at) / Fold change /veh IL23R (11737362_x_at) / RFU TMEM51 (11727254_a_at) / Fold change /veh TMEM51 (11727254_a_at) / RFU PIWIL2 (11732686_x_at) / Fold change /veh PIWIL2 (11732686_x_at) / RFU ORM1 (11744905_x_at) / Fold change /veh ORM1 (11744905_x_at) / RFU CCDC152 (11743942_at) / Fold change /veh CCDC152 (11743942_at) / RFU ECM1 (11717891_a_at) / Fold change /veh ECM1 (11717891_a_at) / RFU IL23R (11748794_a_at) / Fold change /veh IL23R (11748794_a_at) / RFU TNFAIP8L3 (11732012_x_at) / Fold change /veh TNFAIP8L3 (11732012_x_at) / RFU MBOAT4 (11741988_at) / Fold change /veh MBOAT4 (11741988_at) / RFU 11764193_at / Fold change /veh 11764193_at / RFU TMEM53 (11763286_at) / Fold change /veh TMEM53 (11763286_at) / RFU MAGEB2 (11727129_at) / Fold change /veh MAGEB2 (11727129_at) / RFU TMEM200A (11744735_a_at) / Fold change /veh TMEM200A (11744735_a_at) / RFU CCDC152 (11751479_a_at) / Fold change /veh CCDC152 (11751479_a_at) / RFU FAM211A (11726209_a_at) / Fold change /veh FAM211A (11726209_a_at) / RFU RGS16 (11746705_a_at) / Fold change /veh RGS16 (11746705_a_at) / RFU VCAN (11755009_s_at) / Fold change /veh VCAN (11755009_s_at) / RFU RHOB (11743442_s_at) / Fold change /veh RHOB (11743442_s_at) / RFU RGS16 (11720943_a_at) / Fold change /veh RGS16 (11720943_a_at) / RFU RGS16 (11720944_at) / Fold change /veh RGS16 (11720944_at) / RFU, VPS4B / Fold change vs veh, VPS4B / RFU, CREB1 / Fold change vs veh, CREB1 / RFU, DNAJC13 / Fold change vs veh, DNAJC13 / RFU, GNAQ / Fold change vs veh, GNAQ / RFU, CDK5R1 / Fold change vs veh, CDK5R1 / RFU, ZRANB3 / Fold change vs veh, ZRANB3 / RFU, CUL4A / Fold change vs veh, CUL4A / RFU, CCNY / Fold change vs veh, CCNY / RFU, UFL1 / Fold change vs veh, UFL1 / RFU, COG3 / Fold change vs veh, COG3 / RFU, DIAPH2 / Fold change vs veh, DIAPH2 / RFU, SKA2 / Fold change vs veh, SKA2 / RFU, AFF3 / Fold change vs veh, AFF3 / RFU, LMF1 / Fold change vs veh, LMF1 / RFU, IPO11 / Fold change vs veh, IPO11 / RFU, DFFB / Fold change vs veh, DFFB / RFU, FOXP1 / Fold change vs veh, FOXP1 / RFU, CARD8 / Fold change vs veh, CARD8 / RFU, STRN3 / Fold change vs veh, STRN3 / RFU, ADK / Fold change vs veh, ADK / RFU, RASSF2 / Fold change vs veh, RASSF2 / RFU, WIPF1 / Fold change vs veh, WIPF1 / RFU, LARP1B / Fold change vs veh, LARP1B / RFU, RASA1 / Fold change vs veh, RASA1 / RFU, RB1 / Fold change vs veh, RB1 / RFU, PPFIA1 / Fold change vs veh, PPFIA1 / RFU, MAT2A / Fold change vs veh, MAT2A / RFU, CCT5 / Fold change vs veh, CCT5 / RFU, WDR92 / Fold change vs veh, WDR92 / RFU, CUX1 / Fold change vs veh, CUX1 / RFU, TTC7A / Fold change vs veh, TTC7A / RFU, TMEM135 / Fold change vs veh, TMEM135 / RFU, DEPTOR / Fold change vs veh, DEPTOR / RFU, CPM / Fold change vs veh, CPM / RFU, DNAJB6 / Fold change vs veh, DNAJB6 / RFU, CACNA2D3 / Fold change vs veh, CACNA2D3 / RFU, DTX4 / Fold change vs veh, DTX4 / RFU, TFCP2 / Fold change vs veh, TFCP2 / RFU, GMCL1 /// GMCL1P1 / Fold change vs veh, GMCL1 /// GMCL1P1 / RFU, AEBP2 / Fold change vs veh, AEBP2 / RFU, SNHG1 /// SNORD22 /// SNORD25 /// SNORD26 /// SNORD27 /// SNORD28 /// SNORD29 /// SNORD31 / Fold change vs veh, SNHG1 /// SNORD22 /// SNORD25 /// SNORD26 /// SNORD27 /// SNORD28 /// SNORD29 /// SNORD31 / Fold change (Aza/veh), C12orf56 (ProbeSet 11735607_a_at) / Fold change (ACY-1035/veh), C12orf56 (ProbeSet 11735607_a_at) / Fold change (Aza/veh), FGFR1OP (ProbeSet 11751329_s_at) / Fold change (ACY-1035/veh), FGFR1OP (ProbeSet 11751329_s_at) / Fold change (Aza/veh), VPS36 (ProbeSet 11739960_a_at) / Fold change (ACY-1035/veh), VPS36 (ProbeSet 11739960_a_at) / RFU SYPL1 (11715823_x_at) / Fold change /veh SYPL1 (11715823_x_at) / RFU IGFBP7 (11715501_s_at) / Fold change /veh IGFBP7 (11715501_s_at) / RFU REEP3 (11722064_at) / Fold change /veh REEP3 (11722064_at) / RFU IGLL1 (11728026_x_at) / Fold change /veh IGLL1 (11728026_x_at): dose or concentration left out as unconfirmed
Details: ProbeSet 11755070_a_at; LIST D

Nc1ncn([C@@H]2O[C@H](CO)[C@@H](O)[C@H]2O)c(=O)n1 [azacitidine]
RFU, CARD8: 161.67 RFU
